From patent US20130064859A1, “COMBINATORIAL VITAMIN D AND PROBIOTIC THERAPY FOR INFLAMMATORY BOWEL DISEASE” (priority 2011, published 2013)

Assays:
[1] = test system: Foxp3 expression in human Tregs; experiment: human monocyte / CD4+ T cell co-culture, Foxp3 MFI; type: cell-based; conditions: FIG. 6C
Protocol: In a particular example of the method of paragraph, in vitro, human monocytes are treated with PSA or vehicle for 16-18 hrs, washed and co-cultured with CD4+ T cells from PBMCs of the same donor with or without TGFb. After 2 days, cells were collected and stained for Foxp3. MFI of Foxp3 among CD4+CD25+ T cells was determined by flow cytometry.
(§1) (A) Mouse DCs were stimulated with PSA (or PBS control), and Cyp27b1 transcript levels were measured by qRT-PCR. PSA induces the expression of the vitamin D-activating enzyme from WT, but not TLR2−/− DCs. (B) Mouse DCs were treated with PSA, washed and co-cultured with naïve CD4+ T cells. After 4 days, PSA increased Foxp3+ Treg proportions (see % in box). The vitamin D metabolite 25D augmented PSA-induced Tregs. (C) Human monocytes were treated with PSA or vehicle, washed and co-cultured with CD4+ T cells from PBMCs of the same donor. The MFI for Foxp3 among CD4+CD25+ T cells is shown with or without TGFβ. Collectively, we propose a model whereby PSA signals through TLR2 on DCs to induce expression of Cyp27b1, which converts 25D to 1,25D. The vitamin D receptor (VDR) in T cells responds to 1,25 D, and along with other PSA-specific signals, mediated the development of Treg cells (see diagram in FIG. 1).
(§2) Vitamin D enhances PSA-mediated induction of mouse and human Tregs. […]

CD4+Foxp3+ T cells = experiment: mouse DC / CD4+ T cell co-culture, Foxp3+ Treg induction; type: cell-based, mice; conditions: FIG. 6B
Protocol: In a particular example of the method of paragraph, mouse dendritic cells (DCs) are treated with PSA or PSA and vitamin D metabolite for 16-18 hrs, washed and co-cultured with naïve CD4+ T cells. After 4 days, cells were collected and stained for Foxp3. Percentage of Foxp3+ CD4+ T cells were determined by flow cytometry.
as §1, §2

Cyp27b1 = experiment: qRT-PCR of Cyp27b1 in bone marrow-derived dendritic cells treated with PSA; type: cell-based, mice; conditions: FIG. 6A
Protocol: as §1
Vitamin D enhances PSA-mediated induction of mouse and human Tregs. As outlined above, the ability of PSA to protect against IBD in mice involves the gut-specific conversion of CD4+ cell into IL-10-secreting Foxp3+ Tregs. We hypothesize that vitamin D may play a pivotal role in this process, given our novel finding that PSA induces the vitamin D-activating machinery in mice (see FIG. 5C). […]

TNBS colitis = experiment: TNBS experimental colitis in mice treated with PSA; type: in vivo; conditions: for IL-10 expression in MLNs (qRT-PCR) / IL-17 levels in MLNs (qRT-PCR): FIG. 3C
Protocol: (§3) (A) Mice were treated with PSA or PBS. Analysis of the percentage of Foxp3+ cells within the CD4+CD25+ population in the MLNs is shown, indicated by the numbers in the top right quadrant. (B) CD4+CD25+ cells were purified from the MLNs of colitic PBS or PSA-treated mice and incubated with CFSE-pulsed CD4+CD25-responder cells in an in vitro suppression assay. Numbers indicate the percentage of cells undergoing at least one cellular division at 2 different ratios of effector T cells (Teff) and regulatory T cells (Treg). Top panels show results from healthy mice (−TNBS). (C) Disease scores for mice pre- and post-treated with PSA during TNBS colitis were assessed by a blinded pathologist. P values determined by a two-tailed Mann-Whitney U-test. **p value of <0.01. (D) Colons from mice were fixed, sectioned and stained with H&E to determine disease severity. Representative sections are shown.
(A) C57B1/6 WT or TLR2−/− animals were gavaged with purified PSA (or PBS) prior to TNBS administration. 5-6 days after onset of TNBS colitis, colons of animals were fixed, sectioned and H&E stained. Representative histological sections are shown. […] Each symbol represents a separate animal. *p value of <0.05. NS, not significant. (C) RNA was extracted from the MLNs of indicated mice either treated with PBS or PSA, and the expression levels of IL-10 and IL-17A were assayed by qRT-PCR. (D) Percentages of CD4+CD25+Foxp3+ T cells in the MLNs of TLR2−/−mice treated with PBS or PSA. Plots are gated on CD4+ T cells. Note: PSA increases CD4+CD25+Foxp3+ Treg proportions in WT mice by ˜25%.
B. fragilis induces Tregs that prevent and cure experimental IBD. Maintenance of homeostasis toward the intestinal microbial milieu is critical to the preservation of health, and defects in mucosal tolerance lead to disorders such as IBD. In animal models of IBD, intestinal inflammation is suppressed by various subsets of regulatory T cells (Tregs). Tregs emerge from the thymus and are marked by expression of CD4, CD25 and the transcription factor Foxp3 (Forkhead Box transcription factor for Treg differentiation). We have recently reported that the prominent human commensal, B. fragilis, directs the development of Foxp3+ Tregs in the gut during protection from experimental colitis in animal models. […] The Mazmanian laboratory employs 2 models of experimental colitis: 1) the T cell transfer model whereby various T cell subsets are transferred into RAG−/− animals allowing for the functional study of both pro- and anti-inflammatory T cells; 2) the TNBS (2,4,6-trinitrobenzene sulfonic acid) model, where rectal treatment of animals with an immunogenic chemical results in gut inflammation.
(§4) Here, we present data from the TNBS model, representative of results similar to the T cell transfer model. […] During protection from colitis (TNBS+PSA), PSA increases in-the percentage of Foxp3+ cells within the CD4+CD25+ compartment of the MLNs. […] The suppressive capacity of Tregs during PSA-mediated protection from intestinal inflammation was determined by in vitro suppression assays.
To examine if PSA can prevent and cure established colitis, animals were induced for TNBS colitis, and groups were either treated with vehicle (TNBS+PBS) or PSA either: 1) prior to disease induction (pre-TNBS+PSA) or 2) following rectal TNBS administration (post-TNBS+PSA).
PSA protection from experimental IBD requires TLR2 signaling. Multiple studies have implicated TLR signaling by innate immune cells during inflammatory disease. […] Wild-type (WT) or TLR2−/− animals were orally treated with PSA or PBS prior to induction of TNBS colitis. […] In contrast, TLR2−/− mice treated with PSA had marked inflammation including thickening of the mucosa, infiltrating leukocytes and crypt loss (FIG. 3A). […] As previously reported, WT animals were protected from colitis by PSA.

[2] = test system: proliferation of CD4+CD25- responder T cells; experiment: in vitro suppression assay with CD4+CD25+ Tregs from MLNs of treated mice; type: cell-based; conditions: Tregs from PSA fed mice (TNBS+PSA) vs untreated animals, FIG. 2B
Protocol: as §3, §4

[3] = PSA following the onset of disease, data not shown

TGFβ [reference compound]
effect on PSA-induced Tregs ([1]; co-culture with or without TGFβ): does not further enhance

25-hydroxyvitamin D [25D, reference compound]
effect on PSA-induced increase of CD4+Foxp3+ T cells (CD4+Foxp3+ T cells; co-treatment of WT BMDCs with PSA and 25D): further enhanced

polysaccharide A [PSA]
proportions of CD4+Foxp3+ T cells in culture (CD4+Foxp3+ T cells; WT BMDCs treated with PSA, over media controls): increases | induction of Cyp27b1 expression (Cyp27b1; DCs from TLR2-/- mice): greatly diminished | induction of Cyp27b1 expression (Cyp27b1; WT BMDC, PSA vs PBS control): 5 fold | colitis disease score (TNBS colitis; PSA following rectal TNBS administration (post-TNBS+PSA)): prevented the development of disease with equal efficacy | Foxp3 expression by gut CD4+ T cells (TNBS colitis; [3]): increased | IL-10 expression by gut CD4+ T cells (TNBS colitis; [3]): increased | colitis disease score (TNBS colitis; PSA prior to disease induction (pre-TNBS+PSA)): prevented the development of disease with equal efficacy | absolute number of CD4+CD25+Foxp3+ cells in the MLNs (TNBS colitis; PSA-treated vs PBS or non-colitic animals, data not shown): significantly higher | IL-10 expression in MLNs (qRT-PCR) (TNBS colitis; TLR2-/- animals): no longer up-regulated | protection from colitis (colitis score) (TNBS colitis; TLR2-/- animals, oral PSA prior to TNBS vs PBS, FIG. 3B): not protected | percentage of CD4+Foxp3+ Tregs (TNBS colitis; TLR2-/- animals, relative to PBS controls, FIG. 3D): no differences | IL-17 levels in MLNs (qRT-PCR) (TNBS colitis; TLR2-/- mice, PSA compared to PBS): increased | percentage of Foxp3+ cells within the CD4+CD25+ compartment of the MLNs (TNBS colitis; TNBS+PSA vs TNBS+PBS, FIG. 2A): increases | IL-10 expression in MLNs (qRT-PCR) (TNBS colitis; WT animals): induced | IL-17 levels in MLNs (qRT-PCR) (TNBS colitis; WT animals): Suppression | protection from colitis (histopathology, colitis score) (TNBS colitis; WT animals, oral PSA prior to TNBS, FIG. 3A/B): protected from disease | increase of CD4+CD25+Foxp3+ Treg proportions (TNBS colitis; WT mice, MLNs, FIG. 3 note): ~25% | pro-inflammatory Th17 cells (TNBS colitis; during both protection and cure of colitis, data not shown): significant decrease | suppression of T cell proliferation by Tregs from MLNs [2]: suppressed T cell proliferation to a significantly higher level | Foxp3 expression in human Tregs (MFI among CD4+CD25+ T cells) ([1]; human monocytes treated with purified PSA or vehicle): promotes Foxp3 expression
